As a reminder, the IC50 is the concentration that inhibits the measured activity by half. Lower therefore signals greater potency in that assay.

Here are results for 2 compounds from US20040219214A1, “Tissue reactive compounds and compositions and uses thereof” (Angiotech International AG, priority 2002, published 2004).

One experiment deals with human fibroblasts. In words: Screening assay for effect on cell proliferation (CYQUANT). Format: cell-based. To be noted: Fibroblast, 72 hours incubation, average of n=4 experiments. How it is done: Fibroblasts at 70-90% confluency are trypsinized, replated at 600 cells/well in media in 96-well plates and allowed to attachment overnight. Mitoxantrone is prepared in DMSO at a concentration of […] and diluted 10-fold to give a range of stock concentrations (10^−8 M to 10^−2 M). Drug dilutions are diluted 1/1000 in media and added to cells to give a total volume of 200 μL/well. Each drug concentration is tested in triplicate wells. Plates containing fibroblasts and mitoxantrone are incubated at 37° C. for 72 hours (In vitro toxicol. (1990) 3: 219; Biotech. Histochem. (1993) 68: 29; Anal. Biochem. (1993)213: 426).
To terminate the assay, the media is removed by gentle aspiration. A 1/400 dilution of CYQUANT 400× GR dye indicator (Molecular Probes; Eugene, Oreg.) is added to 1× Cell Lysis buffer, and 200 μL of the mixture is added to the wells of the plate. Plates are incubated at room temperature, protected from light for 3-5 minutes. Fluorescence is read in a fluorescence microplate reader at ˜480 nm excitation wavelength and ˜520 nm emission maxima. Inhibitory concentration of 50% (IC50) is determined by taking the average of triplicate wells and comparing average relative fluorescence units to the DMSO control. An average of n=4 replicate experiments is used to determine IC50 values. (IC50=20 nM for proliferation of human fibroblasts).

Experiment [1] deals with nitric oxide production in RAW 264.7 cells. In words: Nitric oxide production by macrophages (Greiss assay). Format: cell-based, murine. The conditions noted are these: Mus musculus, RAW264.7; IFNγ and LPS stimulation, 24 hours; average of n=4 experiments. The procedure:
The murine macrophage cell line RAW 264.7 is trypsinized to remove cells from flasks and plated in individual wells of a 6-well plate. Approximately 2×10^6 cells are plated in 2 mL of media containing 5% heat-inactivated fetal bovine serum (FBS). RAW 264.7 cells are incubated at 37° C. for 1.5 hours to allow adherence to plastic. Mitoxantrone is prepared in DMSO at a concentration of 10^−2 M and serially diluted 10-fold to give a range of stock concentrations (10^−8 M to 10^−2 M). Media is then removed and cells are incubated in 1 ng/mL of recombinant murine IFNγ and 5 ng/mL of LPS with or without mitoxantrone in fresh media containing 5% FBS. Mitoxantrone is added to cells by directly adding mitoxantrone DMSO stock solutions, prepared earlier, at a 1/1000 dilution, to each well. Plates containing IFNγ, LPS plus or minus mitoxantrone are incubated at 37° C. for 24 hours (Chem. Ber. (1879) 12: 426; J. AOAC (1977) 60-594; Ann. Rev. Biochem. (1994) 63: 175).
At the end of the 24 hour period, supernatants are collected from the cells and assayed for the production of nitrites. […] Optical density is read immediately on microplate spectrophotometer at 562 nm absorbance. Absorbance over triplicate wells is averaged after subtracting background and concentration values are obtained from the nitrite standard curve (1 μM to 2 mM). […]

Experiment [2] relates to TNFα production by THP-1 cells. As to the kind of experiment: TNF-alpha production by macrophages (ELISA). Format: cell-based, human. To be noted: opsonized zymosan stimulation, 24 hours; average of n=4 experiments. The procedure: The human macrophage cell line, THP-1 is plated in a 12 well plate such that each well contains 1×10^6 cells in 2 mL of media containing 10% FCS. Opsonized zymosan is prepared by resuspending 20 mg of zymosan A in 2 mL of ddH2O and homogenizing until a uniform suspension is obtained. Homogenized zymosan is pelleted at 250 g and resuspended in 4 mL of human serum for a final concentration of 5 mg/mL. and incubated in a 37° C. water bath for 20 minutes to enable opsonization. Bay 11-7082 is prepared in DMSO at a concentration of 10^−2 M and serially diluted 10-fold to give a range of stock concentrations (10^−8 M to 10^−2 M) (J. Immunol. (2000) 165: 411-418; J. Immunol. (2000) 164: 4804-4811; J. Immunol Meth. (2000) 235 (1-2): 33-40).
THP-1 cells are stimulated to produce TNFα by the addition of 1 mg/mL opsonized zymosan. […]
After a 24 hour stimulation, supernatants are collected to quantify TNFα production. TNFα concentrations in the supernatants are determined by ELISA using recombinant human TNFα to obtain a standard curve. […] The dilution of Capture Antibody used is lot-specific and is determined empirically. […] Stop Solution (2 N H2SO4) is then added to the wells and a yellow colour reaction is read at 450 nm with A correction at 570 nm. Mean absorbance is determined from triplicate data readings and the mean background is subtracted. […]
On the technique in general: ELISA stands for enzyme-linked immunosorbent assay.

On to `O=C1c2c(O)ccc(O)c2C(=O)c2c(NCCNCCO)ccc(NCCNCCO)c21` [Mitoxantrone, 9,10-Anthracenedione, 1,4-dihydroxy-5,8-bis((2-((2-hydroxyethyl)amino]ethyl]amino]-], for which the IC50 in the experiment with human fibroblasts amounted to 0.02 µM; in experiment [1], 0.927 µM.

`Cc1ccc(S(=O)(=O)/C=C/C#N)cc1` [Bay 11-7082] showed an IC50 in experiment [2] of 0.81 µM.
